Laboratory results from patent publication US4778800A, “3-oxadiazole and 3-carboxylic acid beta-carboline derivatives, and their use as psychotropic agents” (Schering Aktiengesellschaft, priority 1985, dated 1988).
In brackets after ≈: the same amount, converted by molar mass.

What was measured:
benzodiazepine receptor = experiment: in vivo displacement of 3H-flunitrazepam binding on the benzodiazepine receptor in live brain; details: mice, normally i.p.; 3H-flunitrazepam i.v. after 15 minutes; 50% reduction of specific binding in forebrain
[1] = anticonvulsive action: stopping of spasms induced by pentylenetetrazole (pentazol); format: in vivo; details: Mus musculus, ip, 0.5 h; mice, i.p., pentazol 150 mg/kg s.c. 15-30 minutes later; protects 50% of animals from spasms and death (Litchfield and Wilcoxon); read-out: PTZ ED50
Protocol: In the pharmacological tests, the compounds according to the invention especially show anxiolytic and anticonvulsive effectiveness. For examination of the anticonvulsive action, stopping of spasms induced by pentylenetetrazole (pentazol) was examined. Pentazol is administered subcutaneously in an amount of 150 mg/kg as a hydrochloric acid solution (pH 2-3) 15-30 minutes after the intraperitoneal application of the test substance. This amount induces clonic and tonic spasms which lead to death in untreated animals. The number of mice which show spasms and the number of them that died 30 minutes after pentazol are recorded.
The ED50 values indicated in the table were determined according to the method of Litchfield and Wilcoxon (J. Pharmacol. exp. Ther. 96 (1949) […]) as the amount of antagonistically acting substance which protects 50% of the animals from spasms and death.

benzodiazepine receptors = experiment: displacement of 3H-flunitrazepam from benzodiazepine receptors in vitro; format: binding; details: 3H-flunitrazepam 1.0 nM, 0° C., rat forebrain membranes, pH 7.1

SMILES | ED50 in vivo (benzodiazepine receptor) [mg/kg] | ED50 [1] [mg/kg] | IC50 in vitro (benzodiazepine receptors) [ng/mL]
CCOCc1cccc2[nH]c3cnc(C(=O)OCC)c(C)c3c12 [5-CH2 OC2 H5, CH3, COOC2 H5, reference compound] | 1.0 | > 100 | 0.8 (≈ 2.56 nM)
CCOC(=O)c1ncc2[nH]c3cccc(COC)c3c2c1C [5-CH2 OCH3, CH3, COOC2 H5, reference compound] | 2.0 | > 100 | 0.45 (≈ 1.51 nM)
CCOC(CC)c1cccc2[nH]c3cnc(-c4nc(CC)no4)c(COC)c3c12 (stereo not drawn) [5-CH(C2 H5)OC2 H5, CH2 OCH3, drawing 8] | 3 | 0.3 | 0.2 (≈ 0.507 nM)
CCOC(CC)c1cccc2[nH]c3cnc(-c4nc(CC)no4)c(C)c3c12 (stereo not drawn) [5-CH(C2 H5)OC2 H5, CH3, drawing 7, 3-[5-(3-ethyl-1,2,4-oxadiazol)yl]-4-methyl-5-(1-ethoxopropyl)-beta-carboline] | 3 | 0.6 | 0.4 (≈ 1.1 nM)
CCOC(C)c1cccc2[nH]c3cnc(-c4nc(CC)no4)c(C)c3c12 (stereo not drawn) [5-CH(CH3)OC2 H5, CH3, drawing 6, 3-[5-(3-ethyl-1,2,4-oxadiazol)yl]-4-methyl-5-(1-ethoxyethyl)-beta-carboline] | 0.09 | 0.4 | 0.3 (≈ 0.856 nM)
CCCOC(C)c1cccc2[nH]c3cnc(C(=O)OCC)c(C)c3c12 (stereo not drawn) [5-CH(CH3)OC3 H7, CH3, COOC2 H5, 5-(1-propoxyethyl)-4-methyl-beta-carboline-3-carboxylic acid ethyl ester] | 0.6 | 1 | 0.4 (≈ 1.18 nM)
CCCOC(C)c1cccc2[nH]c3cnc(C(=O)OC(C)C)c(C)c3c12 (stereo not drawn) [5-CH(CH3)OC3 H7, CH3, drawing 5] | 1.8 | 0.8 | 0.75 (≈ 2.12 nM)
CCOC(C)c1ccc2[nH]c3cnc(-c4nc(CC)no4)c(CC)c3c2c1 (stereo not drawn) [6-CH(CH3)OC2 H5, C2 H5, drawing 9, 3-[5-(3-ethyl-1,2,4-oxadiazol)yl]-4-ethyl-6-(1-ethoxyethyl)-beta-carboline] | 1.1 | 2.3 | 0.7 (≈ 1.92 nM)
CCOC(=O)c1ncc2[nH]c3ccc(C(C)OCC(F)(F)F)cc3c2c1C (stereo not drawn) [6-CH(CH3)OCH2 CF3, CH3, COOC2 H5, 4-methyl-6-(1-(2,2,2-trifluoroethoxy)-ethyl)-beta-carboline-3-carboxylic acid ethyl ester] | 1.8 | 2.4 | 0.8 (≈ 2.1 nM)
CCOC(=O)c1ncc2[nH]c3ccc(C(C)SCC)cc3c2c1C (stereo not drawn) [6-CH(CH3)SC2 H5, CH3, COOC2 H5, 4-methyl-6-(1-ethylthioethyl)-beta-carboline-3-carboxylic acid ethyl ester] | 0.43 | 4 | 1.2 (≈ 3.5 nM)
